Reference: patent US20250295638A1, “METHODS OF TREATING ALLOGRAFT REJECTION” (Bargent Therapeutics Pty Ltd, priority 2022, published 2025)

Experiments:
serum heparan sulphate = assay: ELISA assay for serum heparan sulphate after renal allotransplantation; type: in vivo, rat; settings: combined days 2, 4, 6
Protocol: (§1) Left orthotopic renal transplants were performed with a mean anastomosis time of 37±4 minutes using a standard technique (11), which would be well known to the skilled person. The procured kidney was perfused with 2 ml Custodial HTK solution (Chemie GMBH, Alsbach-Hähnlein, Germany) at […]. Transplanted rats were given analgesia (Carprofen 5 mg/kg every 12-24 hours subcutaneously) and a prophylactic antibiotic (Enrofloxacin 5 mg/kg SC 12 hourly) for 3 days. The transplanted kidney and blood were procured on day 6 immediately after euthanasia by CO2 asphyxiation. The kidney and blood were used for measurements of gene expression in intragraft lymphoid cells and peripheral blood mononuclear cells.
(§2) Groups used in this study are set out in Tables 6 and 7. Comparisons were made between an isograft control treatment group (i.e., a control for ischaemia reperfusion injury), a non-treated allograft group, and Castanospermine-treated allograft group. A primary comparison was made between the non-treated group versus the Castanospermine-treated group. […]
Serum samples, separated from whole blood were aliquoted and stored at −80° C. […] Absorbance was immediately measured at 450 nm on a Versa Max Microplate Reader (Molecular Devices, Sunnyvale, California, USA) and the results calculated in ng/ml according to the internal standard curve. […]

[1] = tested on: heparan sulphate in the renal allotransplant; assay: H-scores for heparan sulphate in the renal allotransplant by digital image pathology; type: in vivo, rat; settings: for H-score for heparan sulphate, estimate of difference: day 6 after transplantation
Protocol: as §1, §2
Whole slide digital images were acquired using an Aperio AT2 (Leica Biosystems, Wetzlar, Germany) at 20× magnification before analysis using the HALO v2.0 software (Indica laboratory, Corrales, New Mexico, USA). After selecting tissue areas, the percentage of total pixels with weak, moderate and strong staining intensity was measured using the ‘Area Quantification V1.0’ algorithm. Histology-score quantitation was calculated for each slide as H-score=(1×weak %)+(2×moderate %)+(3×strong %) providing a range from 0 to 300 (30). 4-6 sections per sample were scored at different levels through the tissue to obtain an average. […]
Three treatment Groups were studied at day 6 after transplantation. […] H Score quantitation is calculated for each slide as H-score=(1×weak %)+(2×moderate %)+(3×strong %) giving a score ranging from 0 to 300. There were 4-6 slides per kidney sample from one rat scored (each taken at different levels through the tissue) to obtain an average for that rat. […]

[2] = tested on: heparanase (HPSE) expression in kidney transplant lymphoid cells; assay: Heparanase expression (ddPCR, fractional abundance of cDNA) in lymphoid cells from kidney transplants; type: in vivo, rat; settings: Cast 150 mg/kg minus Non-Treated; day 6 after transplantation
Protocol: RNA was manually extracted using the RNeasy Plus Mini Kit as per the manufacturer's instructions (Qiagen, Hilden, Germany). […] The quality of the RNA was measured using the Nanodrop 2000 (ThermoFisher Scientific, MA, USA) and quantified using the Qubit 2.0 Fluorometer (Invitrogen, MA, USA), RNA was stored at −800 C. […]

[3] = tested on: heparanase (HPSE) expression in peripheral blood lymphoid cells; assay: Heparanase expression (ddPCR, fractional abundance of cDNA) in peripheral blood lymphoid cells of kidney transplanted rats; type: in vivo, rat; settings: day 6 after transplantation
Protocol: as §1
(§3) Studies about gene expression of heparanase were performed on lymphoid cells from transplanted kidney tissue and peripheral blood on day 6 after transplantation. This time frame encompassed the period of maximum rejection at day 6.
Castanospermine was administered by Alzet osmotic pumps (Alza Corporation, Palo Alto, United States) at an immunosuppressive dose of 150 mg/kg per day. […]
RNA was manually extracted using the RNeasy Plus Mini Kit as per the manufacturer's instructions (Qiagen, Hilden, Germany). […] The quality of the RNA was measured using the Nanodrop 2000 (ThermoFisher Scientific, MA, USA) and quantified using the Qubit 2.0 Fluorometer (Invitrogen, MA, USA), RNA was stored at […]. […]
Custom ddPCR assays were designed using the IDT PrimerQuest™ Tool, Prime Time qPCR assay (IDT, Singapore). […] A 25 ul reaction containing, ddPCR SuperMix for Probes (No dUTP) (Bio-Rad, Hercules, CA, USA), a hypoxanthine-guanine phosphoribosyl transferase reference control (HPRT-1) and heparanase target probes (HPSE) (IDT, Singapore). cDNA and water were created for each sample and added to a 96 well plate ready for ddPCR droplet generation. […]
The samples were left on the cycler for a minimum of 4 hours at 4° C. The droplets were then read on the QX200 Droplet Reader and analysed using QuantaSoft Software (Bio-Rad, Hercules, CA, USA). […]

[4] = tested on: heart allograft (PVG donor, DA recipient); assay: Rat heterotopic cardiac transplantation: heart allograft survival; type: in vivo; settings: for heart allograft survival times, mean / heart allograft survival times, median: PVG-DA allograft
Protocol: Inbred rat strains PVG (RT1c) (donor) and DA (RT1a) (recipient) used for heart and renal transplantation were housed under standard conditions. All procedures were approved and audited by an Animal Care and Ethics Committee in Australia.
Heterotopic cardiac transplants were done using a standard technique (10). Cardiac function was assessed daily by abdominal palpation. The end point of cardiac transplant survival was defined as the last day of palpable heart beating. Care of all rats in this study complied with the Animal Research Act 1985 (NSW, Australia). The protocols were designed to minimise pain and discomfort to the animals. Animals were acclimatised to laboratory conditions (22° C., 12 h cycle of light and dark, 50% humidity, ad libitum access to food and water) for a minimum of 1 wk. prior to experimentation. Intragastric gavage administration was carried out with conscious animals, using curved gavage needles appropriate for animal size (250-300 gm body weight: Gauge 16, 100 mm). All transplanted rats were given post-operative analgesia (Carprofen 4 mg/kg every 12-24 h subcutaneously). They were euthanized by approved carbon dioxide asphyxiation when the heart stopped beating prior to tissue procurement.
as §3
Castanospermine was administered by Alzet osmotic pumps (Alza Corporation, Palo Alto, United States) at an immunosuppressive dose of 150 mg/kg per day. OGT 2115 treatment started on the first post operative day and the Castanospermine treatment started on the day of the transplant.
An experiment was conducted comparing heart allograft survival in 6 groups of inbred rats.
These tests were assessed using the Wilcoxon rank sum test procedure. The mean, median, min, max and the first and third quartiles are presented for each group, as well as the estimated difference in location parameters with 95% confidence intervals. The difference in location parameters is the median of the difference between a sample from the first group and a sample from the second group.

[5] = tested on: pancreatic islet allografts; settings: no IRI control, cited from earlier work
[6] = tested on: ischaemia reperfusion injury; settings: reference (2); cited from earlier work
[7] = Castanospermine (150 mg/kg per day) v Isograft
[8] = Non-treated v Castanospermine (150 mg/kg per day)
[9] = Group 4: OGT 2115 2.5 mg/kg subcutaneously
[10] = Group 5: OGT 2115 5 mg/kg subcutaneously
[11] = Group 6: 10 mg/Kg, Wilcoxon difference in location
[12] = Group 6: OGT 2115 10 mg/kg subcutaneously

Q: What does the source list for `O[C@H]1[C@H](O)[C@@H](O)CN2CC[C@H](O)[C@H]12` [Castanospermine]?
A: serum heparan sulphate levels, ratio of estimate of difference (serum heparan sulphate; [7]): 1.05; serum heparan sulphate levels, ratio of estimate of difference (serum heparan sulphate; [8]): 1.72; H-score for heparan sulphate, estimate of difference [1, 7]: −3.08; H-score for heparan sulphate, estimate of difference [1, 8]: 34.78; breakdown of HSPG (in words) ([1]; in both the allotransplant and the serum from allotransplanted rats, 150 mg/kg per day): effectively stops the breakdown of HSPG; Estimated mean difference in heparanase levels (percent heparanase cDNA), kidney samples [2]: −31.0%; Estimated mean difference in heparanase levels (percent heparanase cDNA), peripheral blood samples ([3]; Cast 150 mg/kg minus Non-Treated): 22.1%

Q: For `O=C(O)Cc1ccc2oc(-c3ccc(NC(=O)/C=C/c4ccc(Br)cc4)c(F)c3)nc2c1` [OGT 2115], which “survival of the heart allotransplant grafts (in words)” value ([4]; 2.5, 5 and 10 mg/Kg, Table 2 and FIG. 1) is on record?
A: The value was “prolonged the survival”.

Q: And the “heart allograft survival times, mean” value [4, 9]?
A: The value was 7.40 days.

Q: What about the “heart allograft survival times, median” value [4, 9] of the same compound?
A: Its value is 8 days.

Q: What about the “heart allograft survival times, mean” value [4, 10] of the same compound?
A: Its value is 7.33 days.

Q: What about the “heart allograft survival times, median” value [4, 10] of the same compound?
A: Its value is 7 days.

Q: And the “estimated increase in survival compared to DMSO” value [4, 11]?
A: The value was 3 days.

Q: What about the “estimated increase in survival compared to Non-treated PVG-DA” value [4, 11] of the same compound?
A: The value was 2 days.

Q: What about the “heart allograft survival times, mean” value [4, 12] of the same compound?
A: Its value is 9.18 days.

Q: What about the “heart allograft survival times, median” value [4, 12] of the same compound?
A: The value was 9 days.

Q: What about the “Estimated mean difference in heparanase levels (percent heparanase cDNA), peripheral blood samples” value ([3]; OGT 2115 10 mg/kg minus Isograft) of the same compound?
A: The value was 17.0%.

Q: And the “Estimated mean difference in heparanase levels (percent heparanase cDNA), peripheral blood samples” value ([3]; OGT 2115 10 mg/kg minus Non-Treated)?
A: Its value is 35.9%.

Q: Which results are given for PI 88?
A: rejection of islet allografts (in words) ([5]; WO 2008/046162, example 8 and FIG. 10): curtails rejection of islet allografts; survivals of pancreatic islet allografts (in words) ([5]; WO 2011/109877, Example 7 and FIG. 15): prolonged

Q: With Roneparstat as the compound, how does the “ischaemia reperfusion injury (in words)” value [6] read?
A: The value was “curtail ischaemia reperfusion injury”.
